# Test results taken from ChEMBL document CHEMBL5727111, “Pyrrolidinyl urea, pyrrolidinyl thiourea and pyrrolidinyl guanidine compounds as TrkA kinase inhibitors” (2019).
# Target: High affinity nerve growth factor receptor (Homo sapiens, UniProt P04629)
# Experiment: TrkA Omnia Assay: Trk enzymatic selectivity was assessed using Omnia Kinase Assay reagents from Invitrogen Corp. Enzyme (TrkA from Invitrogen Corp.) and test compound (various concentrations) were incubated for 10 minutes at ambient temperature in a 384-well white polypropylene plate (Nunc catalog#267462). Omnia Tyr Peptide #4, as well as ATP, were then added to the plate. Final concentrations were as follows: 20 nM enzyme, 500 μM of ATP, 10 μM peptide substrate. The assay buffer consisted of 25 mM MOPS pH 7.5, 0.005% (v/v) Triton X-100 and 5 mM MgCl2. The production of phosphorylated peptide was monitored continuously for 70 minutes using a Molecular Devices FlexStation II384 microplate reader (excitation=360 nm; emission=485 nm). Initial rates were calculated from the progress curves. IC50 values were calculated from these rates using either a 4 or 5-parameter logistic curve fit.
# Sequence of High affinity nerve growth factor receptor (P04629 whole entry): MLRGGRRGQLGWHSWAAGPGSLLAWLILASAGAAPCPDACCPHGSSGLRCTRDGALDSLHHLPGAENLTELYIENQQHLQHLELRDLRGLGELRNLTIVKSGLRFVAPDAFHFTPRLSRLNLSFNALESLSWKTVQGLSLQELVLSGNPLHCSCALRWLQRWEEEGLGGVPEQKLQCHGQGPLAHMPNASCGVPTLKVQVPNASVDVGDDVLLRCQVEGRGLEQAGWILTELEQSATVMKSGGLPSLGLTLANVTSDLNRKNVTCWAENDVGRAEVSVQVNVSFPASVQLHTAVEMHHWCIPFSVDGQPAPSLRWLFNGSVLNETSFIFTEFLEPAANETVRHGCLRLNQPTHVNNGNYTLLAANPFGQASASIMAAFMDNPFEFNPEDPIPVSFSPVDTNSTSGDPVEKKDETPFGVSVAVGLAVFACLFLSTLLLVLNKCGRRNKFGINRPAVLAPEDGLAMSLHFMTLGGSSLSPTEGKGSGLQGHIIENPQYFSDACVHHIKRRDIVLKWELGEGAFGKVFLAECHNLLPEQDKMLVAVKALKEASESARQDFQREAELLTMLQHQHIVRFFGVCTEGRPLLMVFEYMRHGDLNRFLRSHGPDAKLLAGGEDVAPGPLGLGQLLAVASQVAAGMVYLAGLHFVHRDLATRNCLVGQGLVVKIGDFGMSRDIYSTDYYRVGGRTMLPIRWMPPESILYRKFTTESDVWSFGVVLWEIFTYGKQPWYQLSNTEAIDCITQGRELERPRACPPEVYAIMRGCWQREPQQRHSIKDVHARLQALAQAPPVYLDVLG
row,IC50,SMILES
1,< 100 nM,COCCN1C[C@@H](NC(=O)Nc2c(C)c(-c3cnn(C)c3)nn2-c2ccccc2)[C@H](c2ccccc2)C1
2,< 100 nM,COCCN1C[C@@H](NC(=O)Nc2c(C)c(-c3cnn(C)c3)nn2-c2ccccc2)[C@H](c2ccc(F)c(F)c2)C1
3,< 100 nM,COCCN1C[C@@H](NC(=O)Nc2c(C)c(-c3cnn(C)c3)nn2-c2cccc(F)c2)[C@H](c2ccc(F)cc2)C1
4,< 100 nM,COCCN1C[C@@H](NC(=O)Nc2c(SC)c(C)nn2-c2ccccc2)[C@H](c2ccc(F)c(F)c2)C1
5,< 100 nM,COCCN1C[C@@H](NC(=O)Nc2c(C)c(-c3cnn(C)c3)nn2-c2cccc(Cl)c2F)[C@H](c2ccc(F)c(F)c2)C1
6,< 100 nM,COCCN1C[C@@H](NC(=O)Nc2c(C)c(-c3cnn(C)c3)nn2-c2ccccc2)[C@H](c2ccc(C#N)cc2)C1
7,< 100 nM,Cc1c(-c2ccc(=O)n(C)c2)nn(-c2ccccc2)c1NC(=O)N[C@H]1CN(CC(F)(F)F)C[C@@H]1c1ccccc1
8,< 100 nM,COCCN1C[C@@H](NC(=O)Nc2c(Br)c(C)nn2-c2ccccc2)[C@H](c2cc(F)cc(F)c2)C1
9,< 100 nM,COCCN1C[C@@H](NC(=O)Nc2c(Br)c(C)nn2-c2ccccc2)[C@H](c2ccc(F)cn2)C1 (relative stereo)
10,< 100 nM,COCCN1C[C@@H](NC(=O)Nc2c(C)c(-c3cnn(C)c3)nn2-c2ccccc2)[C@H](c2csnn2)C1 (relative stereo)

# The next lines start with the molecule.
row,SMILES,IC50
1,COc1ncccc1N1C[C@@H](NC(=O)Nc2c(C)c(-c3cnn(C)c3)nn2-c2ccccc2)[C@H](c2ccccc2)C1,< 100 nM
2,COCCN1C[C@@H](NC(=O)Nc2c(Cl)c(-c3cnn(C)c3)nn2-c2ccccc2)[C@H](c2cncc(F)c2)C1,< 100 nM
3,COCCN1C[C@@H](NC(=O)Nc2c(C)c(-c3cnn(C)c3)nn2-c2cccc(Cl)c2)[C@H](c2ccc(F)c(F)c2)C1,< 100 nM
4,COCCN1C[C@@H](NC(=O)Nc2c(C)c(-c3cnn(C)c3)nn2-c2ccc(F)c(Cl)c2)[C@H](c2ccc(F)c(F)c2)C1,< 100 nM
5,COCCN1C[C@@H](NC(=O)Nc2c(C)c(-c3cnn(C)c3)nn2-c2ccccc2)[C@H](c2cccc(C#N)c2)C1,< 100 nM
6,CCOc1nn(-c2ccccc2)c(NC(=O)N[C@H]2CN(CC(F)(F)F)C[C@@H]2c2cccc(F)c2)c1C,< 100 nM
7,COCCN1C[C@@H](NC(=O)Nc2c(Cl)c(C)nn2-c2ccccc2)[C@H](c2cc(F)cc(F)c2)C1,< 100 nM
8,COCCN1C[C@@H](NC(=O)Nc2cc(-c3ccc(C(=O)N(C)C)cc3)nn2C)[C@H](c2ccc(F)c(F)c2)C1,< 100 nM
9,COCCN1C[C@@H](NC(=O)Nc2c(C)c(-c3cnn(C)c3)nn2-c2ccccc2F)[C@H](c2ccc(F)cc2)C1,< 100 nM
10,Cn1cc(-c2nn(-c3ccccc3)c(NC(=O)N[C@H]3CN(CC(F)(F)F)C[C@@H]3c3ccccc3)c2Cl)cn1,< 100 nM
11,COCCN1C[C@@H](NC(=O)Nc2c(C)c(-c3cnn(C)c3)nn2-c2ccccc2)[C@H](c2ccc(F)cn2)C1 (relative stereo),< 100 nM
12,CCOc1nn(-c2ccccc2)c(NC(=O)N[C@@H]2CN(CCOC)C[C@H]2c2cncc(Cl)c2)c1C (relative stereo),< 100 nM
13,O=C(Nc1c2c(nn1-c1ccccc1)CCC2)N[C@@H]1CN(CC(F)F)C[C@H]1c1ccc(F)cc1 (relative stereo),< 100 nM
